From patent US11046658B2, “Aminopyrazine derivatives as PI3K-γ inhibitors” (Incyte Corporation, priority 2018, dated 2021)
Structures can show the parent of a compound that is named as a salt.

Test system: Phosphorylated Ribosomal Protein S6 (RPS6) in THP-1 cells
Assay: THP-1 RPS6 ELISA Assay
Assay type: cell-based, Human
Settings: Homo sapiens; Table A1; THP-1 cells, 10 nM MCP-1; read-out: PI3Kγ_THP1_RPS6_ELISA IC50
Experimental: To measure the Phosphorylated Ribosomal Protein S6 (RPS6) in cell lysates, THP-1 cells (Human Acute Monocytic Leukemia) are purchased from ATCC (Manassas, Va.) and maintained in RPMI with 10% FBS (Gibco/Life Technologies, Carlsbad, Calif.). For the assay, THP-1 cells are serum starved overnight in RPMI, then plated in RPMI (2×10^5 cells/well in 90 μL) into 96-well flat-bottom tissue culture treated plates (Corning, Corning, N.Y.), in the presence or absence of a concentration range of test compounds. Covered plates are incubated for 2 hours at 37° C., 5% CO2 then treated with or without 10 nM MCP-1(MYBioSource, San Diego, Calif.) for 15 minutes at 37° C., 5% CO2. Plates are centrifuged at 1600 RPM and supernatants are removed. Cells are lysed in Lysis Buffer (Cell Signaling, Danvers, Mass.) with Protease Inhibitor (Calbiochem/EMD, Germany), PMSF (Sigma, St Louis Mo.), HALTS (Thermo Fisher, Rockford, Ill.) for 30 min on wet ice. Cell lysates are frozen at −80 OC before testing. The lysates are tested in the Human/Mouse/Rat Phospho-RPS6 ELISA (R&D Systems, Inc. Minn, Minn.). The plate is measured using a microplate reader (SpectraMax M5—Molecular Devices, LLC Sunnyvale, Calif.) set to 450 nm with a wavelength correction of 540. IC50 determination is performed by fitting the curve of inhibitor percent inhibition versus the log of the inhibitor concentration using the GraphPad Prism 5.0 software.

IC50 [nM]	SMILES
< 100	COC(C)(C)CNC(=O)c1nc(-c2cc(C(O)(C(N)=O)C(F)(F)F)ccc2C)cnc1N (stereo not shown) [Example 21, 3-amino-6-(5-(3-amino-1,1,1-trifluoro-2-hydroxy-3-oxopropan-2-yl)-2-methylphenyl)-N-(2-methoxy-2-methylpropyl)pyrazine-2-carboxamide trifluoroacetate]
< 100	Cc1ccc(C(O)(C(N)=O)C(F)(F)F)cc1-c1cnc(N)c(C(=O)NC23CC(C#N)(C2)C3)n1 (stereo not shown) [Example 23, 3-amino-6-(5-(3-amino-1,1,1-trifluoro-2-hydroxy-3-oxopropan-2-yl)-2-methylphenyl)-N-(3-cyanobicyclo[1.1.1]pentan-1-yl)pyrazine-2-carboxamide trifluoroacetate]
< 100	Cc1ccc(C(O)(C(N)=O)C(F)(F)F)cc1-c1cnc(N)c(C(=O)NC23CCC(C#N)(C2)C3)n1 (stereo not shown) [Example 24, 3-amino-6-(5-(3-amino-1,1,1-trifluoro-2-hydroxy-3-oxopropan-2-yl)-2-methylphenyl)-N-(4-cyanobicyclo[2.1.1]hexan-1-yl)pyrazine-2-carboxamide trifluoroacetate]
< 100	Cc1ccc(C(O)(C(N)=O)C(F)(F)F)cc1-c1cnc(N)c(C(=O)NC23CCC(C#N)(CC2)CC3)n1 (stereo not shown) [Example 25, 3-amino-6-(5-(3-amino-1,1,1-trifluoro-2-hydroxy-3-oxopropan-2-yl)-2-methylphenyl)-N-(4-cyanobicyclo[2.2.2]octan-1-yl)pyrazine-2-carboxamide trifluoroacetate]
< 500	COC[C@H]1CCN1C(=O)c1nc(-c2cc(C(O)(C(N)=O)C(F)(F)F)ccc2C)cnc1N (stereo partly drawn) [Example 26, 2-(3-(5-amino-6-((R)-2-(methoxymethyl)azetidine-1-carbonyl)pyrazin-2-yl)-4-methylphenyl)-3,3,3-trifluoro-2-hydroxypropanamide]
< 100	Cc1ccc(C(O)(C(N)=O)C(F)(F)F)cc1-c1cnc(N)c(C(=O)N2CCC2(C)C)n1 (stereo not shown) [Example 27, 2-(3-(5-amino-6-(2,2-dimethylazetidine-1-carbonyl)pyrazin-2-yl)-4-methylphenyl)-3,3,3-trifluoro-2-hydroxypropanamide]
< 100	CCNC(=O)c1nc(-c2cc(C(O)(C(N)=O)C(F)F)ccc2C)cnc1N (stereo not shown) [Example 32, 3-amino-6-(5-(1-amino-3,3-difluoro-2-hydroxy-1-oxopropan-2-yl)-2-methylphenyl)-N-ethylpyrazine-2-carboxamide]
< 100	Cc1ccc(C(O)(C(N)=O)C(F)F)cc1-c1cnc(N)c(C(=O)NCC2(C#N)CC2)n1 (stereo not shown) [Example 33, 3-amino-6-(5-(1-amino-3,3-difluoro-2-hydroxy-1-oxopropan-2-yl)-2-methylphenyl)-N-((1-cyanocyclopropyl)methyl)pyrazine-2-carboxamide]
< 100	Cc1ccc(C(O)(C(N)=O)C(F)F)cc1-c1cnc(N)c(C(=O)NC2CCC(F)(F)CC2)n1 (stereo not shown) [Example 34, 3-amino-6-(5-(1-amino-3,3-difluoro-2-hydroxy-1-oxopropan-2-yl)-2-methylphenyl)-N-(4,4-difluorocyclohexyl)pyrazine-2-carboxamide]
< 100	Cc1ccc(C(O)(C(N)=O)C(F)F)cc1-c1cnc(N)c(C(=O)NC(C)(C)CO)n1 (stereo not shown) [Example 35, 3-amino-6-(5-(1-amino-3,3-difluoro-2-hydroxy-1-oxopropan-2-yl)-2-methylphenyl)-N-(1-hydroxy-2-methylpropan-2-yl)pyrazine-2-carboxamide]
< 100	Cc1ccc(C(O)(C(N)=O)C(F)F)cc1-c1cnc(N)c(C(=O)NC2CCOCC2)n1 (stereo not shown) [Example 36, 3-amino-6-(5-(1-amino-3,3-difluoro-2-hydroxy-1-oxopropan-2-yl)-2-methylphenyl)-N-(tetrahydro-2H-pyran-4-yl)pyrazine-2-carboxamide]
< 100	Cc1ccc(C(O)(C(N)=O)C(F)F)cc1-c1cnc(N)c(C(=O)NCCC2CCOC2)n1 (stereo not shown) [Example 37, 3-amino-6-(5-(1-amino-3,3-difluoro-2-hydroxy-1-oxopropan-2-yl)-2-methylphenyl)-N-(2-(tetrahydrofuran-3-yl)ethyl)pyrazine-2-carboxamide]
< 100	Cc1ccc(C(O)(C(N)=O)C(F)(F)F)cc1-c1cnc(N)c(C(=O)NCC(F)(F)F)n1 (stereo not shown) [Example 38, 3-Amino-6-(5-(3-amino-1,1,1-trifluoro-2-hydroxy-3-oxopropan-2-yl)-2-methylphenyl)-N-(2,2,2-trifluoroethyl)pyrazine-2-carboxamide trifluoroacetate]
< 500	CC(=O)NCC(O)(c1ccc(C)c(-c2cnc(N)c(C(=O)NC(C)C)n2)c1)C(F)(F)F (stereo not shown) [Example 39, 6-(5-(3-Acetamido-1,1,1-trifluoro-2-hydroxypropan-2-yl)-2-methylphenyl)-3-amino-N-isopropylpyrazine-2-carboxamide trifluoroacetate]

SMILES	IC50 [nM]
Cc1ccc(C(O)(CNC(=O)CF)C(F)(F)F)cc1-c1cnc(N)c(C(=O)NC(C)C)n1 (stereo not shown) [Example 40, 3-Amino-N-isopropyl-6-(2-methyl-5-(1,1,1,-trifluoro-3-(2-fluoroacetamido)-2-hydroxypropan-2-yl)phenyl)pyrazine-2-carboxamide trifluoroacetate]	< 500
Cc1ccc(C(O)(CNC(=O)CC#N)C(F)(F)F)cc1-c1cnc(N)c(C(=O)NC(C)C)n1 (stereo not shown) [Example 42, 3-Amino-6-(5-(3-(2-cyanoacetamido)-1,1,1-trifluoro-2-hydroxypropan-2-yl)-2-methylphenyl)-N-isopropylpyrazine-2-carboxamide trifluoroacetate]	< 500

Same assay, conditions: Homo sapiens; Table A2; THP-1 cells, 10 nM MCP-1; read-out: PI3Kγ_THP1_RPS6_ELISA IC50

IC50 [nM]	SMILES
< 100	COCC#Cc1nc(-c2cc(C(O)(C(N)=O)C(F)(F)F)ccc2C)cnc1N (stereo not shown) [Example 47, 2-(3-(5-amino-6-(3-methoxyprop-1-ynyl)pyrazin-2-yl)-4-methylphenyl)-3,3,3-trifluoro-2-hydroxypropanamide trifluoroacetate]
> 1000	Cc1ccc(C(O)(C(N)=O)C(F)(F)F)cc1-c1cnc(N)c(C#CC2CC2)n1 (stereo not shown) [Example 48, 2-(3-(5-amino-6-(cyclopropylethynyl)pyrazin-2-yl)-4-methylphenyl)-3,3,3-trifluoro-2-hydroxypropanamide]
< 500	Cc1ccc(C(O)(C(N)=O)C(F)(F)F)cc1-c1cnc(N)c(C#CC(C)C)n1 (stereo not shown) [Example 49, 2-(3-(5-amino-6-(3-methylbut-1-ynyl)pyrazin-2-yl)-4-methylphenyl)-3,3,3-trifluoro-2-hydroxypropanamide]
< 100	Cc1ccc(C(O)(C(N)=O)C(F)(F)F)cc1-c1cnc(N)c(C#CC(C)(C)O)n1 (stereo not shown) [Example 50, 2-(3-(5-amino-6-(3-hydroxy-3-methylbut-1-ynyl)pyrazin-2-yl)-4-methylphenyl)-3,3,3-trifluoro-2-hydroxypropanamide]
< 100	Cc1ccc(C(O)(C(N)=O)C(F)(F)F)cc1-c1cnc(N)c(C#CCC(C)O)n1 (stereo not shown) [Example 51, 2-(3-(5-amino-6-(4-hydroxypent-1-ynyl)pyrazin-2-yl)-4-methylphenyl)-3,3,3-trifluoro-2-hydroxypropanamide]
< 500	Cc1ccc(C(O)(C(N)=O)C(F)(F)F)cc1-c1cnc(N)c(C#Cc2ccn[nH]2)n1 (stereo not shown) [Example 52, 2-(3-(6-((1H-pyrazol-5-yl)ethynyl)-5-aminopyrazin-2-yl)-4-methylphenyl)-3,3,3-trifluoro-2-hydroxypropanamide]
< 500	Cc1ccc(C(O)(C(N)=O)C(F)(F)F)cc1-c1cnc(N)c(C#Cc2cncn2C)n1 (stereo not shown) [Example 53, 2-(3-(5-amino-6-((1-methyl-1H-imidazol-5-yl)ethynyl)pyrazin-2-yl)-4-methylphenyl)-3,3,3-trifluoro-2-hydroxypropanamide]
< 100	Cc1ccc(C(O)(C(N)=O)C(F)(F)F)cc1-c1cnc(N)c(C#Cc2cnn(C)c2)n1 (stereo not shown) [Example 54, 2-(3-(5-amino-6-((1-methyl-1H-pyrazol-4-yl)ethynyl)pyrazin-2-yl)-4-methylphenyl)-3,3,3-trifluoro-2-hydroxypropanamide]
< 100	Cc1ccc(C(O)(C(N)=O)C(F)(F)F)cc1-c1cnc(N)c(C#Cc2ccccn2)n1 (stereo not shown) [Example 55, 2-(3-(5-amino-6-(pyridin-2-ylethynyl)pyrazin-2-yl)-4-methylphenyl)-3,3,3-trifluoro-2-hydroxypropanamide]
< 100	Cc1ccc(C(O)(C(N)=O)C(F)(F)F)cc1-c1cnc(N)c(C#Cc2cncnc2)n1 (stereo not shown) [Example 56, 2-(3-(5-amino-6-(pyrimidin-5-ylethynyl)pyrazin-2-yl)-4-methylphenyl)-3,3,3-trifluoro-2-hydroxypropanamide]
< 100	Cc1ccc(C(O)(C(N)=O)C(F)(F)F)cc1-c1cnc(N)c(C#Cc2cnccn2)n1 (stereo not shown) [Example 57, 2-(3-(5-amino-6-(pyrazin-2-ylethynyl)pyrazin-2-yl)-4-methylphenyl)-3,3,3-trifluoro-2-hydroxypropanamide]
< 100	Cc1ccc(C(O)(C(N)=O)C(F)(F)F)cc1-c1cnc(N)c(C#Cc2ccc(C#N)cc2)n1 (stereo not shown) [Example 58, 2-(3-(5-amino-6-((4-cyanophenyl)ethynyl)pyrazin-2-yl)-4-methylphenyl)-3,3,3-trifluoro-2-hydroxypropanamide]
